The results in this text go back to paper PMC9481570, “A small molecule antagonist of SMN disrupts the interaction between SMN and RNAP II” (Nature Communications, 2022).

In one assay the target is T1, SND1_F740W (Homo sapiens, UniProt Q7KZF4, F740W).
T1 construct: SND1 (aa 650–910); His (N, cleaved yes); made in house; host or cells: E. coli BL21 (DE3) Codon plus RIL
Kind of assay: ITC binding to SND1 mutant F740W. As to conditions: Supplementary Fig. 11c, iTC-200; read-out: Kd, ITC binding curve, SND1_F740W. From the text:
(§1) The coding DNA fragments of following Tudor domains were cloned into pET28-MHL vector: SMN (aa 82–147), UHRF1 (aa 126–285), SMNDC1 (aa 53–130), TDRD3 (aa 554–611), SND1 (aa 650–910), TDRD2 (aa 327–420), FXR1 (aa 2–132), PHF1 (aa 28–87), SGF29 (aa 115–293), JMJD2A (aa 897–1101), 53BP1 (aa 1483–1606), SETDB1 (aa 190–410), LBR (aa 1–67), ZGPAT (aa 120–271). The coding regions of chromodomain of CBX7 (aa 8–62), PWWP domain of DNMT3A (aa 275–417), WD40 repeats of WDR5 (aa 24–334) and CW domain of ZCWPW2 (aa 21–78) were also subcloned into pET28-MHL vector to generate N-terminally His-tagged fusion protein. The MBT repeats of L3MBTL1 (aa 200–522) and L3MBTL2 (aa 170–625) were subcloned into pET28GST-LIC vector to generate N-terminally GST-His-tagged fusion protein. All the plasmids were generated by ligase independent cloning (Vazyme Biotech, C112 or ABclonal Technology, RK21020). […] The molecular weight of all protein samples was measured by mass spectrometry.
(§2) For the ITC measurement, the concentrated proteins were diluted into 20 mM Tris-HCl, pH 7.5, 150 mM NaCl (ITC buffer); the lyophilized compounds were dissolved in the same buffer, and the pH value was adjusted by adding 2 M NaOH or 2 M HCl. […] Compound concentrations were calculated from the mass and the volume of the solvent. […]

A further assay concerns the target T2, SMN_Y127A (Homo sapiens, UniProt Q16637, Y127A).
T2 construct: cloned into pET28-MHL vector: SMN (aa 82–147); His (N, cleaved yes); made in house; host or cells: E. coli BL21 (DE3) Codon plus RIL
Kind of assay: ITC binding to SMN Tudor mutant Y127A. To be noted: Fig. 3d.
Description: as §1, §2

A further assay concerns the target T3, L3MBTL1 (MBT) (Homo sapiens, UniProt Q9Y468).
T3 construct: L3MBTL1 (aa 200–522); GST-His (N, cleaved yes); made in house; host or cells: E. coli BL21 (DE3) Codon plus RIL
Kind of assay: ITC binding to MBT repeats of L3MBTL1.
Description: as §1, §2

Another assay deals with T4, SMNDC1 (Homo sapiens, UniProt O75940).
T4 construct: SMNDC1 (aa 53–130); His (N, cleaved yes); made in house; host or cells: E. coli BL21 (DE3) Codon plus RIL
In words: ITC binding to SMNDC1. To be noted: Supplementary Fig. 2; read-out: Kd, ITC binding curve, SMNDC1.
Description: as §1, §2

A further assay deals with T5, SMN_Y127F (Homo sapiens, UniProt Q16637, Y127F).
T5 construct: cloned into pET28-MHL vector: SMN (aa 82–147); His (N, cleaved yes); made in house; host or cells: E. coli BL21 (DE3) Codon plus RIL
Kind of assay: ITC binding to SMN Tudor mutant Y127F. As to conditions: Fig. 3d.
Description: as §1, §2

The next assay addresses T6, TDRD2 (Homo sapiens, UniProt Q9Y2W6).
T6 construct: TDRD2 (aa 327–420); His (N, cleaved yes); made in house; host or cells: E. coli BL21 (DE3) Codon plus RIL
Kind of assay: ITC binding to TDRD2. To be noted: Fig. 1c.
Description: as §1, §2

T3 sequence (Q9Y468 268-590): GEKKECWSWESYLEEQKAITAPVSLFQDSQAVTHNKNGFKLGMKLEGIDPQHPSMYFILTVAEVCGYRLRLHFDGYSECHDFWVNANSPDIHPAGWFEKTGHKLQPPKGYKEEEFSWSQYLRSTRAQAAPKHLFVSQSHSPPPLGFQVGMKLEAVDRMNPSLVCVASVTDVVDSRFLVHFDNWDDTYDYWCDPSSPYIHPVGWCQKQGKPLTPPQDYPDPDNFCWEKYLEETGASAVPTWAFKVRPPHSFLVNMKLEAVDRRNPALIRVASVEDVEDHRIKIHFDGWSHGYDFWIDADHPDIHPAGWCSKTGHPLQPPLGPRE
T6 sequence (Q9Y2W6 327-420): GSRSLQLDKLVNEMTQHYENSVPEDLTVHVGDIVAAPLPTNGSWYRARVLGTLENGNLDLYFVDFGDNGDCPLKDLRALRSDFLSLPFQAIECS
T4 sequence (O75940 53-130): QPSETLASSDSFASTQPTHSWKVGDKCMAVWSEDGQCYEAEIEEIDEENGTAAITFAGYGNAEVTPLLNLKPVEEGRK
T1 sequence (Q7KZF4 650-910 F740W): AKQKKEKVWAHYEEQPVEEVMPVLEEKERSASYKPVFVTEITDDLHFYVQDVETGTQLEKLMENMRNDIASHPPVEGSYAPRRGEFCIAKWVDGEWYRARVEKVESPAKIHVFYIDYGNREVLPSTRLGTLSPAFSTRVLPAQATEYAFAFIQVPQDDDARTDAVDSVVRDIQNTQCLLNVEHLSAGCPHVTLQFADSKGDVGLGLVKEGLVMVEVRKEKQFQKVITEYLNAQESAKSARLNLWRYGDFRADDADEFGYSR
T2 sequence (Q16637 82-147 Y127A): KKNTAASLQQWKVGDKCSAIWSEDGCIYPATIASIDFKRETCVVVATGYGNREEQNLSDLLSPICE
T5 sequence (Q16637 82-147 Y127F): as the sequence (Q16637 82-147 Y127A) above, with A46F counted along it

Usually Kd stands for the constant that tells how readily two partners part at equilibrium. In the case of `Cn1c2c(c(=N)c3c1CCC3)CCC2` [Compound 1, 4-methyl-2,3,4,5,6,7-hexahydrodicyclopenta[b,e]pyridin-8(1H)-imine], the Kd is 38 ± 8 µM at SND1_F740W; above 100 µM at SMN_Y127A; above 100 µM at L3MBTL1 (MBT) (ITC, Fig. 1c); 2.8 ± 0.2 µM on SMNDC1; 4 ± 0.2 µM at SMN_Y127F; above 244 µM on TDRD2. Also, the “ITC binding curve, MBT repeats of L3MBTL1 (in words)” value at L3MBTL1 (MBT) (Supplementary Fig. 2f) is “Weak binding”.
